Measured values published in publication PMC8623273, “Novel N7-Arylmethyl Substituted Dinucleotide mRNA 5′ cap Analogs: Synthesis and Evaluation as Modulators of Translation” (Pharmaceutics, 2021).

How the values were obtained:
[1] = tested on: A549 cells; assay: translational efficiency of mRNAs capped with the analogs in A549 cells (Gaussia luciferase); type: cell-based
Procedure: Finally, we tested the properties of arylmethyl cap analogs as reagents for co-transcriptional mRNA capping. […] Here, we sought to evaluate the translational properties of mRNAs capped with N7-arylmethyl analogs in cultured cells. To that end, the translation properties of transcripts capped with selected analogs were assessed in A549 cells. In vitro transcribed mRNAs encoding Gaussia luciferase, capped with compounds 1a–1k, 1m–1n, and 1p–1r or with reference analogues m^7GpppG and ARCA (m^7GmpppG), were purified via RP HPLC, transfected into A549 cells, and the protein activity (luminescence) was measured using a reporter assay at 72 h post-transfection. The total amount of protein produced over 72 h from each capped RNA was normalized to m^7GpppG RNA (Figure 6 and Figure S4). […] Namely, replacing the N7-methyl group with a benzyl moiety (1a) increased protein production over fivefold in A549 cells compared to m^7GpppG-capped mRNA (Figure 6).
The influence of N7-arylmethylated dinucleotide 5′ cap analogues on the translational properties of HPLC-purified IVT mRNA is shown in Figure S4, Measurements are total protein produced over 72 h by A549 cells transfected with capped mRNAs. Each plot in Figure S4 represents a single experiment consisting of three independent transfections of the cells at the same passage. Bars show mean value normalized to […] ± SD. In the main manuscript, all nine data points from three different cell passages were combined to present cumulative protein expression.

[2] = target: eIF4E (Mus musculus, UniProt P63073); assay: time-synchronized fluorescence quenching titration with eIF4E; type: binding; details: 50 mM Hepes pH 7.2, 134.5 mM KCl, 20 °C, read-out: KD Cap-eIF4E ± SD (value in brackets) (converted)
Chain of eIF4E (P63073 whole entry): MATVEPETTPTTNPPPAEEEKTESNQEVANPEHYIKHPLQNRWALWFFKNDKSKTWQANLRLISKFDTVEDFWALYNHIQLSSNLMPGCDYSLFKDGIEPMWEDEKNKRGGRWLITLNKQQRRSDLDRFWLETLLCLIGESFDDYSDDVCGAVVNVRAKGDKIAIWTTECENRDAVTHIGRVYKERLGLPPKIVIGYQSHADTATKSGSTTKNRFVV
Source text: (§1) High affinity for eIF4E is a desirable feature of cap analogs designed for modulating translation, either as small molecules or as a part of mRNA. Thus, we studied how different substituents at the N7-position affected eIF4E-cap interaction. To this end, we first determined the affinity of m^7GpppG and Bn^7GpppG (1a) using time-synchronized fluorescence quenching titration, a very precise and well-established, but low-throughput method. Next, to evaluate the whole set of the synthesized compounds (1a–1r), we used a high-throughput competitive-binding assay based on a pyrene-labeled fluorescent probe. From this assay we determined relative affinities of the compounds represented by half-effective concentrations (EC50) (Figure 3A–C), which were then used to calculate dissociation constant (KD) values for cap analog–eIF4E complexes using previously reported equations (Table 2, Figure 3D).

[3] = target: eukaryotic translation initiation factor 4E (eIF4E) (Mus musculus, UniProt P63073); assay: pyrene-probe fluorescent competitive-binding assay (PyFLINT-B) for cap analog-eIF4E; details: for Kd: pyrene-based high-throughput competition assay, 30 °C, KD calculated from EC50, read-out: KD Cap-eIF4E ± SD; for EC50: Table S2; for effect of the N7 substituent on eIF4E binding (in words): compared to m^7GpppG / 1a or unmodified counterpart
Chain of eukaryotic translation initiation factor 4E (eIF4E) (P63073 whole entry): as above
Source text: as §1
To determine the dissociation constants of the library of N7-benzylated dinucleotide 5′ cap analogs for translation initiation factor 4E, a fluorescent competitive-binding assay (PyFLINT-B) was applied as previously described. The experiments were performed on a Synergy™ H1 plate reader in 96-well, black, non-binding assay plates. Each well contained an appropriate buffer (50 mM Hepes/KOH pH 7.2, 100 mM KCl and 0.5 mM EDTA), pyrene probe m^7Gp5C4Py (10 nM), substrate (in half-logarithmic dilutions from 850 μM to 0.03 μM for compound 1m and from 100 μM to 0.003 μM for m^7GpppG and the rest of the compounds) and protein eIF4E (75 nM). The m^7Gp5C4Py was synthesized as describer earlier. The pyrene probe was dissolved in water and concentration was determined spectrometrically at 345 nm using the extinction coefficient (21,000 M^−1 cm^−1). The eIF4E protein was centrifuged after defrosting (5 min, 4 °C, 10k rcf) and its concentration was determined spectrometrically at 280 nm using the extinction coefficient (52,940 M^−1 cm^−1). The reaction mixtures were preincubated (15 min, 300 rpm, 30 °C). All measurements were performed at 30 °C and the fluorescence detection at 345 nm excitation and 378 nm emission was recorded.
To determine EC50 values, GraphPad Prism 9.1.2 software was used. To fit the curves to the obtained data we used the following formula:(1) Y=Bottom+ Top−Bottom/1+ X/EC50 where: X, cap analog (ligand) concentration; EC50, concentration of the cap analog resulting in half-maximal response from the fluorescent probe–protein complex; Bottom, minimal signal from the negative control, which contains only the free probe; Top, maximal signal from the positive control, the mixture of the protein and the fluorescent probe.
The dissociation constants KD were then calculated using the equation described by Nikolovska-Coleska et al.:(2) KD=EC50−Pt+PL50KD_probe/L50+1/L50/KD_probe+P0/KD_probe+1 where: EC50, concentration of the cap analog resulting in half-maximal response from the fluorescent probe–protein complex; [Pt], total protein concentration; [PL]50, concentration of the probe–protein complex at 50% inhibition; KD_probe, dissociation constant of the complex between the fluorescent probe and the protein; [L]50, probe concentration at 50% inhibition; [P]0, free protein concentration at 0% inhibition.

[4] = tested on: translation in vitro (RRL); parameters: method as in PMID 15317978; details: cap incorporated into mRNA; cited from earlier work

SMILES	Kd [3]	EC50 [3]	effect of the N7 substituent on eIF4E binding (in words) [3]	further results
Nc1nc(O)c2c(n1)n([C@@H]1O[C@H](COP(=O)(O)OP(=O)([O-])OP(=O)(O)OC[C@H]3O[C@@H](n4cnc5c(=O)[nH]c(N)nc54)[C@H](O)[C@@H]3O)[C@@H](O)[C@H]1O)c[n+]2Cc1ccccc1 [1a, Bn^7GpppG]	217 ± 36 nM			increase of protein production compared to m^7GpppG-capped mRNA ([1]; A549 cells, 72 h): over fivefold; Kd [2]: 107 nM; translation efficiency in vitro relative to m^7GpppG-capped mRNAs [4]: almost twofold higher
Cc1cccc(C[n+]2cn([C@@H]3O[C@H](COP(=O)(O)OP(=O)([O-])OP(=O)(O)OC[C@H]4O[C@@H](n5cnc6c(=O)[nH]c(N)nc65)[C@H](O)[C@@H]4O)[C@@H](O)[C@H]3O)c3nc(N)nc(O)c32)c1 [1c, 3-MeBn^7GpppG]	319 ± 55 nM	3700 nM		
CC(C)c1ccc(C[n+]2cn([C@@H]3O[C@H](COP(=O)(O)OP(=O)([O-])OP(=O)(O)OC[C@H]4O[C@@H](n5cnc6c(=O)[nH]c(N)nc65)[C@H](O)[C@@H]4O)[C@@H](O)[C@H]3O)c3nc(N)nc(O)c32)cc1 [1e, 4-iPrBn^7GpppG]	534 ± 100 nM	6200 nM	KD increased more than double	
Nc1nc(O)c2c(n1)n([C@@H]1O[C@H](COP(=O)(O)OP(=O)([O-])OP(=O)(O)OC[C@H]3O[C@@H](n4cnc5c(=O)[nH]c(N)nc54)[C@H](O)[C@@H]3O)[C@@H](O)[C@H]1O)c[n+]2Cc1ccc(F)cc1 [1g, 4-F-Bn^7GpppG]	261 ± 54 nM	3100 nM		
Nc1nc(O)c2c(n1)n([C@@H]1O[C@H](COP(=O)(O)OP(=O)([O-])OP(=O)(O)OC[C@H]3O[C@@H](n4cnc5c(=O)[nH]c(N)nc54)[C@H](O)[C@@H]3O)[C@@H](O)[C@H]1O)c[n+]2Cc1ccc(Cl)cc1 [1h, 4-Cl-Bn^7GpppG]	221 ± 37 nM	2600 nM		increase of protein production compared to ARCA ([1]; A549 cells, 72 h): 2.5 fold
Nc1nc(O)c2c(n1)n([C@@H]1O[C@H](COP(=O)(O)OP(=O)([O-])OP(=O)(O)OC[C@H]3O[C@@H](n4cnc5c(=O)[nH]c(N)nc54)[C@H](O)[C@@H]3O)[C@@H](O)[C@H]1O)c[n+]2Cc1ccc(Br)cc1 [1i, 4-Br-Bn^7GpppG]	172 ± 26 nM	2000 nM		
Nc1nc(O)c2c(n1)n([C@@H]1O[C@H](COP(=O)(O)OP(=O)([O-])OP(=O)(O)OC[C@H]3O[C@@H](n4cnc5c(=O)[nH]c(N)nc54)[C@H](O)[C@@H]3O)[C@@H](O)[C@H]1O)c[n+]2Cc1ccc(F)c(F)c1 [1k, 3,4-di-F-Bn^7GpppG]	489 ± 77 nM	5700 nM		
Nc1nc(O)c2c(n1)n([C@@H]1O[C@H](COP(=O)(O)OP(=O)([O-])OP(=O)(O)OC[C@H]3O[C@@H](n4cnc5c(=O)[nH]c(N)nc54)[C@H](O)[C@@H]3O)[C@@H](O)[C@H]1O)c[n+]2Cc1ccc(C(F)(F)F)cc1 [1l, 4-CF3-Bn^7GpppG]	293 ± 43 nM			
Nc1nc(O)c2c(n1)n([C@@H]1O[C@H](COP(=O)(O)OP(=O)([O-])OP(=O)(O)OC[C@H]3O[C@@H](n4cnc5c(=O)[nH]c(N)nc54)[C@H](O)[C@@H]3O)[C@@H](O)[C@H]1O)c[n+]2Cc1ccc([N+](=O)[O-])cc1 [1n, 4-NO2-Bn^7GpppG]	367 ± 71 nM	4300 nM	accepted by the protein	
CO[C@@H]1[C@H](O)[C@@H](COP(=O)(O)OP(=O)([O-])OP(=O)(O)OC[C@H]2O[C@@H](n3cnc4c(=O)[nH]c(N)nc43)[C@H](O)[C@@H]2O)O[C@H]1n1c[n+](Cc2ccccc2)c2c(O)nc(N)nc21 [1q, Bn^7GmpppG]	171 ± 25 nM	2000 nM	twofold increase in cap-binding affinity	change of protein expression of ARCA analog compared to 2'-O-unmethylated counterpart (1q vs 1a, 1r vs 1h) ([1]; A549 cells, 72 h): additional twofold increase
CO[C@@H]1[C@H](O)[C@@H](COP(=O)(O)OP(=O)([O-])OP(=O)(O)OC[C@H]2O[C@@H](n3cnc4c(=O)[nH]c(N)nc43)[C@H](O)[C@@H]2O)O[C@H]1n1c[n+](Cc2ccc(Cl)cc2)c2c(O)nc(N)nc21 [1r, 4-Cl-Bn^7GmpppG]	132 ± 20 nM	1600 nM	twofold increase in cap-binding affinity	change of protein expression of ARCA analog compared to 2'-O-unmethylated counterpart (1q vs 1a, 1r vs 1h) ([1]; A549 cells, 72 h): decreased the protein expression by twofold
Cn1c[n+]([C@@H]2O[C@H](COP(=O)(O)OP(=O)([O-])OP(=O)(O)OC[C@H]3O[C@@H](n4cnc5c(=O)[nH]c(N)nc54)[C@H](O)[C@@H]3O)[C@@H](O)[C@H]2O)c2nc(N)[nH]c(=O)c21 [m^7GpppG, reference compound]	229 ± 37 nM	2700 ± 300 nM		Rel. Protein Expression ([1]; mRNA capped with the analog, Gaussia luciferase activity in A549 cells 72 h post-transfection, normalized to m^7GpppG RNA): 1.0; Kd [2]: 160 nM
